# Results: patent publication US20050282818A1, “Ubiquitin ligase inhibitors” (Rigel Pharmaceuticals, Inc., priority 2004, published 2005)
# Key:
# [1] = tested on: OVCAR8 cells; assay: Cell proliferation PAD assay, OVCAR8; assay type: cell-based; settings: Homo sapiens, OVCAR-8, 6pt, 48 hours
# Description: (§1) Cell lines used are available from American Type Culture Collection (ATCC), for example, cell cultures containing A549 (ATCC# CCL-185), HeLa (ATCC# CCL-2), HCT116 ATTC# CCL-247), and H1299 (ATCC# CRL-5803) cells were maintained in T175 flasks following the ATCC recommended media and handling procedures. […] A 20,000 cells/ml solution was made for plating. Cells were plated in black Packard 96 well plates by placing 100 μl per well (2,000 cells per well). […] The definitions of the cell types used are as follows: A549 is lung carcinoma; HI 299 is non-small cell lung carcinoma; HI 155 is non-small cell lung carcinoma; AsPC-1 is pancreatic adenocarcinoma; Caov-3 is ovarian adenocarcinoma; COLO 205 is colorectal adenocarcinoma; DLD-1 colorectal adenocarcinoma; HCT116 is colorectal carcinoma; DU 145 is prostate carcinoma; ES-2 is ovarian clear cell carcinoma; H460 is large cell lung carcinoma; HELA is cervical adenocarcinoma; MIA PaCa-2 is pancreatice carcinoma; OVCAR-3 is ovarian adenocarcinoma; OVCAR8 is ovarian carcinoma; PC3 is prostate adenocarcinoma; SK-OV-3 is ovarian adenocarcinoma; SU86.86 is pancreatic carcinoma; TOV-21G is avarian clear cell carcinoma; U2OS is bone osteosarcoma; is ASPC-I is pancreatic adenocarcinoma; BXPC-3 is pabcreatic adenocarcinoma; HL60 is promyeloblast promyelocytic leukemia; K562 is bone marrow chronic myelogenous leukemia; L1210 is mouse lymphocytic leukemia; MOLT3 is T lymphoblast acute lymphoblastic leukemia; MOLT4 is T lymphoblast acute lymphoblastic leukemia; SW620 is colorectal adenocarcinoma; THP-1 is monocyte acute monocytic leukemia; U937 is histiocytic lymphoma; and UACC-257 is melanoma.
# (§2) Compounds and additional media were added 24 hours after cell plating. […] All compound testing was done in duplicate using 6.3 fold dilutions starting with 10 mM. […] Taxol and at least one additional control were run on all plates. Three microliters of the compound master plate were added to deep well blocks containing 750 μl of RPMI media. One hundred microliters were transferred from the compound/media deep well blocks to the plated cells resulting in a 500 fold dilution of the compounds. Cells were grown at 37° C., 5% CO2 for 48 hours.
# (§3) Cells to be analyzed by photography were fixed and stained. One hundred microliters of media were removed and 100 μl of 9.3% formamide was added to each well. Plates were left on the benchtop for 45 minutes. A staining solution containing 1.55 μl of 1 mg/ml DAPI added to 18.75 ml PBS was warmed for 15 minutes at 37° C. The cells were aspirated prior to washing with 100 μl of PBS. Seventy microliters of PBS were aspirated and 170 μl of the DAPI solution were added to each well of fixed cells. Plates were left at room temperature for one hour then aspirated and washed twice with 100 μl of PBS. The stained cells were left at 4° C. for a minimum of 16 hours before photographic analysis with Array Scan II (Cellomics). Analysis of the photographic images to determine numbers of live cells (proliferation), apoptotic cells and dead cells, were according to the methods described in U.S. Utility patent application Ser. No. 10/652,440, which incorporated herein in its entirety.
# [2] = tested on: UACC-257 cells; assay: Cell proliferation PAD assay, UACC-257; assay type: cell-based; settings: Homo sapiens, UACC257 cells, 6pt, 48 hours
# Description: as §1, §2, §3
# [3] = biological target: T1, ROC1/CUL1 (Homo sapiens, UniProt P62877+Q13616); assay: ROC1/CUL1 ubiquitin ligase assay (SCF assay); assay type: biochemical
# T1 construct: made in house
# Description: Inhibition of ubiquitin ligase activity of E1+E2+E3 was measured using the protocol as described in WO 01/75145 with E3 as the ROC1/CUL1, ROC1/CUL2, or ROC2/CUL5 complex.
# The wells of nickel-substrate 96-well plates (Pierce Chemical) are blocked with 100 μl of 1 casein/phosphate buffered saline (PBS) for 1 hour at room temperature, then washed with 200 μl of PBST (0.1% Tween-20 in PBS) 3 times. To each well is added the following Flag-ubiquitin (see above) reaction solution: 62.5 mM Tris pH 7.5, 6.25 mm MgCl2, 0.75 mM DTT, 2.5 mM ATP, 2.5 mM NaF1, 2.5 nM Okadaic acid, 100 ng Flag-ubiquitin (made as described above).
# The buffer solution is brought to a final volume of 80 μl with Milipore-filtered water, followed by the addition of 10 μl DMSO.
# To the above solution is then added 10 μl of ubiquitination enzymes in 20 mM Tris buffer, pH 7.5, and 5% glycerol. E2-Ubch5c and E3-His ROC1/Cul1, ROC1/CUL2, and ROC2/CUL5 are made as described in WO 01/75145. E1 is obtained commercially (Affiniti Research Products, Exeter, U. K.). The following amounts of each enzyme are used for these assays: 5 ng/well of E1; […] E2; and 100 ng/well His-E3. Varying amounts of compounds according to the invention are added and the reaction allowed to proceed at room temperature for 1 hour.
# Following the ubiquitination reaction, the wells are washed with 200 μl of PBST 3 times. For measurement of the enzyme-bound ubiquitin, 100 gel of Mouse anti-Flag (1:10,000) and anti-Mouse Ig-HRP (1:15, 000) in PBST are added to each well and allowed to incubate at room temperature for 1 hour. The wells are then washed with 200 μl of PBST 3 times, followed by the addition of 100 μl of luminol substrate (1/5 dilution). Luminescence for each well is then measured using a fluorimeter.
# Table 2 below illustrates the inhibitory activity of the compounds of the invention determined by the TRAF6/Uev1A/Ubc13 assay as well as in the ICAM, APC and the ROC1/CUL1 Ubiquitin Ligase Assay (SCF Assay). The IC50 values were determined using a various concentrations of the compounds.
# T1 sequence (P62877 whole entry): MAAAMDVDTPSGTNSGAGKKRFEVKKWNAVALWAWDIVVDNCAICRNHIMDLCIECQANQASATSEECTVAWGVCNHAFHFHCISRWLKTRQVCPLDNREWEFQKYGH
# T1 sequence (Q13616 whole entry): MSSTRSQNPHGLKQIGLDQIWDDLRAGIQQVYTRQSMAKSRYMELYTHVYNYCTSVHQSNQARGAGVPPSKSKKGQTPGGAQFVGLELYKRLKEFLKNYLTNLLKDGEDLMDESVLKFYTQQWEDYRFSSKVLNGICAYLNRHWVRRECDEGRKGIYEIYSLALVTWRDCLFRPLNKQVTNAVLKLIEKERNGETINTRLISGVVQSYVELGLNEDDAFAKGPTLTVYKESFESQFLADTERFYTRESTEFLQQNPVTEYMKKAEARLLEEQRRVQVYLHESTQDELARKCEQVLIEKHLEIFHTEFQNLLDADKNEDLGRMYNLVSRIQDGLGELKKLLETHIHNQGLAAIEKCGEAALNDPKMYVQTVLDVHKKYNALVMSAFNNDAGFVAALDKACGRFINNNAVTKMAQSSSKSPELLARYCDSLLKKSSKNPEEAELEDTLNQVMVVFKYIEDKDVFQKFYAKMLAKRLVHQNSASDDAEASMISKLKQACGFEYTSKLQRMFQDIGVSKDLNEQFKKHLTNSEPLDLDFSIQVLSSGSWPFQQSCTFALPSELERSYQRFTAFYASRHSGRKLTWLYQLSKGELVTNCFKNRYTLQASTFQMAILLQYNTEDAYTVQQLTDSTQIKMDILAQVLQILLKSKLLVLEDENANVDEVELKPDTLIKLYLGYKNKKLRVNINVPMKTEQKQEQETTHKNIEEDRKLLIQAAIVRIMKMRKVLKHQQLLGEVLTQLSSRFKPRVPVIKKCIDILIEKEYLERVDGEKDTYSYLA
SMILES,IC50 [1] [µM],IC50 [3] [µM],IC50 [2] [µM]
"O=[N+]([O-])c1ccc(Sc2cccc3cccnc23)c2nonc12 [compound 5, 8-[(7-Nitro-2,1,3-benzoxadiazol-4-yl)thio]quinoline]",< 1,–,< 1
"O=[N+]([O-])c1ccc(Oc2c(Cl)cc(S(=O)(=O)Nc3cccc4nsnc34)cc2Cl)c(Cl)c1 [compound 73, N-2,1,3-benzothiadiazol-4-yl-3,5-dichloro-4-(2-chloro-4-nitrophenoxy)benzenesulfonamide]",≥ 20,–,≥ 20
"O=S(=O)(Nc1cccc2nonc12)c1ccc(Oc2ncc(C(F)(F)F)cc2Cl)cc1 [compound 78, N-2,1,3-benzoxadiazol-4-yl-4-{[3-chloro-5-(trifluoromethyl)pyridin-2-yl]oxy}benzenesulfonamide]",1 to 20,–,1 to 20
"O=[N+]([O-])c1ccc(N2CCN(c3cc(C(F)(F)F)ccn3)CC2)c2nonc12 [compound 90, 4-nitro-7-{4-[4-(trifluoromethyl)pyridin-2-yl]piperazin-1-yl}-2,1,3-benzoxadiazole]",≥ 20,–,≥ 20
"O=S(=O)(Nc1cccc2nsnc12)c1ccc(Oc2ccccc2)cc1 [compound 94, N-2,1,3-benzothiadiazol-4-yl-4-phenoxybenzenesulfonamide]",1 to 20,–,1 to 20
"O=[N+]([O-])c1ccc(Oc2ccc(S(=O)(=O)Nc3cccc4nonc34)cc2Cl)c(C(F)(F)F)c1 [compound 114, N-2,1,3-benzoxadiazol-4-yl-3-chloro-4-[4-nitro-2-(trifluoromethyl)phenoxy]benzenesulfonamide]",1 to 20,–,1 to 20
"Cc1ccc(N2CCN(c3ccc([N+](=O)[O-])c4nonc34)CC2)cc1C [compound 140, 4-[4-(3,4-dimethylphenyl)piperazin-1-yl]-7-nitro-2,1,3-benzoxadiazole]",1 to 20,–,1 to 20
"N#CC1(c2ccccc2)CCN(c2ccc([N+](=O)[O-])c3nonc23)CC1 [compound 141, 1-(7-nitro-2,1,3-benzoxadiazol-4-yl)-4-phenylpiperidine-4-carbonitrile]",≥ 20,–,≥ 20
"O=C(c1ccc(F)cc1)C1CCN(c2ccc([N+](=O)[O-])c3nonc23)CC1 [compound 142, (4-fluorophenyl)[1-(7-nitro-2,1,3-benzoxadiazol-4-yl)piperidin-4-yl]methanone]",1 to 20,–,1 to 20
"CC1CC(C)CN(c2ccc([N+](=O)[O-])c3nonc23)C1 (stereo not drawn) [compound 144, 4-(3,5-dimethylpiperidin-1-yl)-7-nitro-2,1,3-benzoxadiazole]",≥ 20,–,≥ 20
"Cc1ccc(Cl)cc1N1CCN(c2ccc([N+](=O)[O-])c3nonc23)CC1 [compound 145, 4-[4-(5-chloro-2-methylphenyl)piperazin-1-yl]-7-nitro-2,1,3-benzoxadiazole]",≥ 20,–,≥ 20
"O=[N+]([O-])c1ccc(N2CCN(c3ccc(O)cc3)CC2)c2nonc12 [compound 146, 4-[4-(7-nitro-2,1,3-benzoxadiazol-4-yl)piperazin-1-yl]phenol]",1 to 20,–,1 to 20
"O=[N+]([O-])c1ccc(N2CCC(O)(c3ccc(Cl)cc3)CC2)c2nonc12 [compound 159, 4-(4-chlorophenyl)-1-(7-nitro-2,1,3-benzoxadiazol-4-yl)piperidin-4-ol]",1 to 20,–,≥ 20

# More lines, main results first:
IC50 [1] [µM],IC50 [3] [µM],SMILES,IC50 [2] [µM]
1 to 20,–,"O=[N+]([O-])c1ccc(N2CCN(c3ncccc3C(F)(F)F)CC2)c2nonc12 [compound 148, 4-nitro-7-{4-[3-(trifluoromethyl)pyridin-2-yl]piperazin-1-yl}-2,1,3-benzoxadiazole]",1 to 20
≥ 20,–,"CCOC(=O)c1cc(C#N)c(C)nc1N1CCN(c2ccc([N+](=O)[O-])c3nonc23)CC1 [compound 153, ethyl 5-cyano-6-methyl-2-[4-(7-nitro-2,1,3-benzoxadiazol-4-yl)piperazin-1-yl]nicotinate]",≥ 20
1 to 20,–,"O=[N+]([O-])c1ccc(Sc2nc3ccccc3s2)c2nonc12 [compound 158, 4-(1,3-benzothiazol-2-ylthio)-7-nitro-2,1,3-benzoxadiazole]",1 to 20
–,≥ 20,"CC1CC(C)CN(S(=O)(=O)c2ccc(Cl)c3nonc23)C1 (stereo not drawn) [compound 192, 4-chloro-7-[(3,5-dimethylpiperidin-1-yl)sulfonyl]-2,1,3-benzoxadiazole]",–
–,≥ 20,"N#CC1(c2ccccc2)CCN(S(=O)(=O)c2ccc(O)c3nonc23)CC1 [compound 199, 1-[(7-hydroxy-2,1,3-benzoxadiazol-4-yl)sulfonyl]-4-phenylpiperidine-4-carbonitrile]",–
–,≥ 20,"N#Cc1ccc(N2CCN(S(=O)(=O)c3c(Cl)ccc4nonc34)CC2)nc1 [compound 209, 6-{4-[(5-chloro-2,1,3-benzoxadiazol-4-yl)sulfonyl]piperazin-1-yl}nicotinonitrile]",–
–,≥ 20,"CC(=O)N1CCN(S(=O)(=O)c2c(Sc3cccc4cccnc34)ccc3nonc23)CC1 [compound 214, 8-({4-[(4-acetylpiperazin-1-yl)sulfonyl]-2,1,3-benzoxadiazol-5-yl}thio)quinoline]",–
–,≥ 20,"O=S(=O)(c1ccc(Sc2ccc(O)cc2)c2nonc12)N1CCC(Oc2ncccn2)CC1 [compound 226, 4-[(7-{[4-(pyrimidin-2-yloxy)piperidin-1-yl]sulfonyl}-2,1,3-benzaxadiazol-4-yl)thio]phenol]",–
–,≥ 20,"O=S(=O)(Nc1ccc(F)c(F)c1)c1ccc(Cl)c2nonc12 [compound 262, 7-chloro-N-(3,4-difluorophenyl)-2,1,3-benzoxadiazole-4-sulfonamide]",–
–,≥ 20,"O=S(=O)(Nc1cccc(F)c1)c1ccc(Cl)c2nonc12 [compound 263, 7-chloro-N-(3-fluorophenyl)-2,1,3-benzoxadiazole-4-sulfonamide]",–
–,≥ 20,"Cc1cc(C)cc(-c2cccc3nonc23)c1 [compound 285, 4-(3,5-Dimethylphenyl)-2,1,3-benzoxadiazole]",–
1 to 20,–,"O=[N+]([O-])c1ccc(N2CCN(c3ncc(C(F)(F)F)cc3Cl)CC2)c2nonc12 [compound 315, 4-{4-[3-chloro-5-(trifluoromethyl)pyrindin-2-yl]piperazin-1-yl}-7-nitro-2,1,3-benzoxadiazole]",≥ 20
